Columns and labels:
[1] = test system: HeLa human cervical tumor cells; assay: Proliferation Assay (HeLa+Paclitaxel); assay type: cell-based; details: 3 nM paclitaxel, test substance 92 hours; read-out: Biological Assay 3: Proliferation Assay (HeLa + Paclitaxel) IC50
Description: Proliferation Assay (HeLa+Paclitaxel):
(§1) Cultivated HeLa human cervical tumor cells (DSMZ ACC-57) were plated at a density of 3000 cells/well in a 96-well multititer plate in 200 μL of growth medium supplemented 10% fetal calf serum. After 24 hours, the cells of one plate (zero-point plate) were stained with crystal violet (see below). The medium of the other plates was supplemented with 3 nM of paclitaxel (Sigma-Aldrich) and the cells were incubated at 37° C. After 4 hours the test substances were added in various concentrations (0 μM, as well as in the range of 0.001-10 μM; the final concentration of the solvent dimethyl sulfoxide was adjusted to 0.1%) using a Hewlett-Packard HP D300 Digital Dispenser. The cells were incubated for another 92 hours at 37° C. in the presence of test substances. […] After three washing cycles of the fixed cells with water, the plates were dried at room temperature. The cells were stained by adding 100 μL/measuring point of a 0.1% crystal violet solution (pH 3.0). After three washing cycles of the stained cells with water, the plates were dried at room temperature. The dye was dissolved by adding 100 μL/measuring point of a 10% acetic acid solution. […] The change of cell number, in percent, was calculated by normalization of the measured values to the absorption values of the zero-point plate (=0%) and the 5 absorption of the untreated (0 μm) cells (=100%). The IC50 values were determined by means of a 4 parameter fit.

[2] = molecular target: T1, catalytic domain of human Bub1 (amino acids 704-1085) (Homo sapiens, UniProt O43683); assay: Bub1 kinase assay (TR-FRET); assay type: biochemical; details: 10 μM ATP, 60 min reaction, pH 7.5; read-out: Biological Assay 1: Bub1 kinase assay median IC50
T1 construct: catalytic domain of human Bub1 (amino acids 704-1085); His6 (N); made in house; host or cells: Hi5 insect cells
T1 sequence (O43683 704-1085): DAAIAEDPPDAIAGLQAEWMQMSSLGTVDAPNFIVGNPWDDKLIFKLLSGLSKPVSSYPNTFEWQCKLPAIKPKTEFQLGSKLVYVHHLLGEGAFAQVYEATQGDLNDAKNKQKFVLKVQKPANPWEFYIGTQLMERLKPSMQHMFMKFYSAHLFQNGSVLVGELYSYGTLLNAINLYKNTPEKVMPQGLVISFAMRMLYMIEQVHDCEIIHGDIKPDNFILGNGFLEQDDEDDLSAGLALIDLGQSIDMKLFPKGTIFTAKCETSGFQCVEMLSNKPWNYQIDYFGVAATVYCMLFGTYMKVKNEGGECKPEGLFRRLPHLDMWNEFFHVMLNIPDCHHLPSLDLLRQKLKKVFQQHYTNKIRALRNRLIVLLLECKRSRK
Description: To this end, 100-fold concentrated compound solutions (in DMSO) were previously prepared by serial dilution (1:3.4) of 2 mM stocks in a clear low volume 384-well source microtiter plate (Greiner Bio-One, Frickenhausen, Germany), from which 50 nL of compounds were transferred into a black low volume test microtiter plate from the same supplier. […] The resulting mixture (5 μL final volume) was incubated at 22° during 60 min., and the reaction was stopped by the addition of 5 μL of an aqueous EDTA-solution (50 mM EDTA, in 100 mM HEPES pH 7.5 and 0.2% (w/v) bovine serum albumin) which also contained the TR-FRET detection reagents (0.2 μM streptavidin-XL665 [Cisbio Bioassays, Codolet, France] and 1 nM anti-phosho-Serine antibody [Merck Millipore, cat. #35-001] and 0.4 nM LANCE EU-W1024 labeled anti-mouse IgG antibody [Perkin-Elmer, product no. AD0077, alternatively a Terbium-cryptate-labeled anti-mouse IgG antibody from Cisbio Bioassays can be used]). The stopped reaction mixture was further incubated 1 h at 22° C. in order to allow the formation of complexes between peptides and detection reagents. Subsequently, the amount of product was evaluated by measurement of the resonance energy transfer from the Eu-chelate-antibody complex recognizing the Phosphoserine residue to the streptavidin-XL665 bound to the biotin moiety of the peptide. […] IC50 values were calculated by fitting the normalized inhibition data to a 4-parameter logistic equation (Minimum, Maximum, IC50, Hill; Y=Max+(Min−Max)/(1+(X/IC50)Hill)).

[3] = test system: Bub1 kinase (histone 2A phosphorylation); assay: H2A Formation-Assay (cell-based mechanistic assay, co-treatment with Nocodazole); details: 16 h, Nocodazole 1 μg/ml together with test compound for 16 h; read-out: Biological Assay 4.1: H2A Formation IC50
Description: Biological Assay 4.1: Formation-Assay
Cell-Based Mechanistic Assay: Changes of Phosphorylation Status of Histone 2A by Inhibition of Kinase Activity of Bub1
This assay determines the suppression of histone 2A phosphorylation by a Bub1 kinase inhibitor during co-treatment with Nocodazole. 25000 cells (cells were ordered from ATCC) were seeded in 96 well plate for 5 h at 37° C. Cells were treated with Nocodazole (1 μg/ml) and varying concentrations (between 3 nM and 10 μM) of test compounds for 16h. Cells were fixed (20 min, Fixing solution R&D), washed three times with PBS and blocked with Odyssey blocking buffer before incubating with the primary antibody against phosphorylated H2A (5 μg/ml ABIN482721) overnight at […]. After washing, secondary IRDye-labeled antibody mix with cell stains was added for 1h and washed again with PBS. Plates were scanned with LiCor Odyssey Infrared Imager CLx at 800 nm for P-H2A and at 700 nm for cell stains Draq5/Sapphire. The quotient of 800 nm and 700 nm for Nocodazole only treated cells was set as 100% and the quotient of 800 nm and 700 nm of untreated cells was set as 0%. […] The IC50 values were determined by means of a 4 parameter fit.
(§2) Histone H2A is an immediate intracellular substrate of Bub1 kinase. Determination of the phosphorylation status of Histone H2A provides a direct measure of the intracellular activity of Bub1 kinase.

[4] = test system: Bub1 kinase (pre-induced phospho-histone 2A); assay: H2A Abrogation-Assay (cell-based mechanistic assay, pre-treatment with Nocodazole); details: Nocodazole 1 μg/ml 16 h, then test compound 1 h; read-out: Biological Assay 4.2: H2A Abrogation IC50
Description: Biological Assay 4.2: Abrogation-Assay
Cell-Based Mechanistic Assay: Changes of Phosphorylation Status of Pre-Induced Phospho-Histone 2A by Inhibition of Kinase Activity of Bub1
This assay measures the inhibition of histone 2A phosphorylation, which was induced by pre-treatment of the cells with Nocodazole, by a Bub1 kinase inhibitor. 25000 cells (cells were ordered from ATCC) were seeded in 96 well plate for 5 h at 37° C. Cells were treated with Nocodazole (1 μg/ml). After 16h varying concentrations (between 3 nM and 10 μM) of test compounds were added and the cells were incubated for another 1h. Cells were fixed (20 min, Fixing solution R&D), washed three times with PBS and blocked with Odyssey blocking buffer before incubating with the primary antibody against phosphorylated H2A (5 μg/ml ABIN482721) overnight at 2-8° C. After washing, secondary IRDye-labeled antibody mix with cell stains was added for 1h and washed again with PBS. Plates were scanned with LiCor Odyssey Infrared Imager CLx at 800 nm for P-H2A and at 700 nm for cell stains Draq5/Sapphire. The quotient of 800 nm and 700 nm for Nocodazole only treated cells was set as 100% and the quotient of 800 nm and 700 nm of untreated cells was set as 0%. […] The IC50 values were determined by means of a 4 parameter fit.
as §2

[5] = test system: HeLa human cervical tumor cells; assay: Proliferation assay (HeLa cell line); assay type: cell-based; details: 96 h, 4 days incubation, crystal violet, read-out: Biological Assay 2: Proliferation assay (HeLa cell line) median IC50
Description: as §1, with “Human tumour cells were originally obtained from the American Type Culture Collection (ATCC), the Deutsche Sammlung von Mikroorganismen und Zellkulturen (DSMZ, German Collection of Microorganisms and Cell Cultures), or Epo GmbH Berlin. Cultivated” for “Cultivated”, “below), while the” for “below). The”, “with” for “with 3 nM of paclitaxel (Sigma-Aldrich) and the cells were incubated at 37° C. After 4 hours”, “substances” for “substances were added”, “4 days” for “another 92 hours at 37° C.”, “the” for “the 5”

SMILES | IC50 [1] [nM] | IC50 [2] [nM] | IC50 [3] [nM] | IC50 [4] [nM] | IC50 [5] [µM]
COc1cnc(-c2nn(Cc3c(F)cc(OCCO)cc3F)c3ccccc23)nc1Nc1ccncn1 [Example 2-1-13, 2-[3,5-difluoro-4-({3-[5-methoxy-4-(pyrimidin-4-ylamino)pyrimidin-2-yl]-1H-indazol-1-yl}methyl)phenoxy]ethanol] | 510 | 5 | 18 | 2.7 | > 10
COc1cnc(-c2nn(Cc3c(F)cc(OC[C@H](C)CO)cc3F)c3ccccc23)nc1Nc1cc(C)ncc1C [Example 2-3-5, (2R)-3-{4-[(3-{4-[(2,5-dimethylpyridin-4-yl)amino]-5-methoxypyrimidin-2-yl}-1H-indazol-1-yl)methyl]-3,5-difluorophenoxy}-2-methylpropan-1-ol] | 69 | 58 | 2 | > 1000 | 3.3
CCOc1cc(F)c(Cn2nc(-c3ncc(OC)c(Nc4ccncc4)n3)c3ccccc32)c(F)c1 [Example 6-4-1, 2-[1-(4-ethoxy-2,6-difluorobenzyl)-1 H-indazol-3-yl]-5-methoxy-N-(pyridin-4-yl)pyrimidin-4-amine, reference compound] | 660 | 52 | 74 | 920 | 2.4

Further compounds by falling IC50 [1], results first:

IC50 [1] [nM] | IC50 [2] [nM] | IC50 [3] [nM] | IC50 [4] [nM] | IC50 [5] [µM] | SMILES
1100 | 420 | 39 | 11 | 1.5 | COc1cnc(-c2nn(Cc3c(F)cc(OCCO)cc3F)c3ccccc23)nc1Nc1cc(NC(C)=O)ncc1C [Example 2-1-14, N-{4-[(2-{1-[2,6-difluoro-4-(2-hydroxyethoxy)benzyl]-1H-indazol-3-yl}-5-methoxypyrimidin-4-yl)amino]-5-methylpyridin-2-yl}acetamide]
430 | 6.2 | 200 | 5400 | 3.2 | COc1cnc(-c2nn(Cc3c(F)cc(OCCO)cc3F)c3ccccc23)nc1Nc1ccncc1 [Example 6-1-1, 2-[3,5-difluoro-4-({3-[5-methoxy-4-(pyridin-4-ylamino)pyrimidin-2-yl]-1H-indazol-1-yl}methyl)phenoxy]ethanol, reference compound]
300 | 17 | 87 | 74 | 3.1 | COc1cnc(-c2nn(Cc3c(F)cc(OCCO)cc3F)c3ccccc23)nc1Nc1ccnc(NC(=O)NC2CC2)c1 [Example 2-1-16, 1-cyclopropyl-3-{4-[(2-{1-[2,6-difluoro-4-(2-hydroxyethoxy)benzyl]-1H-indazol-3-yl}-5-methoxypyrimidin-4-yl)amino]pyridin-2-yl}urea]
200 | 55 | 210 | 310 | > 10 | COc1cnc(-c2nn(Cc3c(F)cc(OCCCO)cc3F)c3ccccc23)nc1Nc1ccnc(C)n1 [Example 2-3-3, 3-{3,5-difluoro-4-[(3-{5-methoxy-4-[(2-methylpyrimidin-4-yl)amino]pyrimidin-2-yl}-1H-indazol-1-yl)methyl]phenoxy}propan-1-ol]
51 | 14 | 35 | 2.1 | 1.4 | COc1cnc(-c2nn(Cc3c(F)cc(OCCO)cc3F)c3ccccc23)nc1Nc1ccnc(C)c1OC [Example 2-1-18, 2-{3,5-difluoro-4-[(3-{5-methoxy-4-[(3-methoxy-2-methylpyridin-4-yl)amino]pyrimidin-2-yl}-1H-indazol-1-yl)methyl]phenoxy}ethanol]

Reference: patent publication US10350206B2, “Benzyl substituted indazoles as BUB1 inhibitors” (Bayer Pharma Aktiengesellschaft, priority 2014, dated 2019)
